Assay results as given in patent publication US20200270309A1, “MALEIMIDE GROUP-MODIFIED ANGIOGENESIS INHIBITOR HM-1 AND USE THEREOF” (NANJING ANJI BIOLOGICAL TECHNOLOGY CO., LTD, priority 2017, published 2020).
Marks after values point to notes of the source that are not given here.

How the values were obtained:
[1] = tested on: Esophageal cancer tumor cell line; test: MTT proliferation inhibition, esophageal cancer; format: cell-based, human; conditions: 48 h, mean ±SD
[2] = tested on: Pancreatic cancer tumor cell line; test: MTT proliferation inhibition, pancreatic cancer; format: cell-based, human; conditions: 48 h, mean ±SD
[3] = tested on: Thyroid cancer tumor cell line; test: MTT proliferation inhibition, thyroid cancer; format: cell-based, human; conditions: 48 h, mean ±SD
[4] = tested on: Head and neck cancers tumor cell line; test: MTT proliferation inhibition, head and neck cancers; format: cell-based, human; conditions: 48 h, mean ±SD
[5] = tested on: Brain tumor cell line; test: MTT proliferation inhibition, brain tumor; format: cell-based, human; conditions: 48 h, mean ±SD
[6] = tested on: human retinal capillary endothelial cells (HRCECs); test: MTT proliferation inhibition on HRCECs; format: cell-based; conditions: 48 h, dose 0.5 μM (positive control)
Procedure: An MTT method was used to detect the inhibitory activity of the angiogenesis inhibitor polypeptide on proliferation of HRCECs. HRCECs were digested and collected with trypsin after being cultured in an incubator at 37° C. with 5% CO2 to a density of 90% or more. The cells were resuspended with a culture solution and counted under a microscope, the cell concentration was adjusted to 3.0×10^4 cells/mL, and the cell suspension was inoculated into a 96-well plate at 100 μL/well, and cultured overnight in an incubator at 37° C. with 5% CO2. After the cells were completely adhered to the wall, cells with the addition of the angiogenesis inhibitor polypeptide were used as administration groups, cells with the addition of Avastin were used as a positive control group, and cells with the addition of culture solution without any drugs were used as a blank control group. The cells were diluted to respective predetermined concentrations with the culture solution. The diluent were added into 96-well plates respectively at 100 μL per well, and the cells were cultured at 37° C. for 48 h in an incubator with 5% CO2. 20 μL of 5 mg/mL MTT was added into each well of the 96-well plate, and the cultivation was continued for 4 h. The culture medium was removed, and 100 μL of DMSO was added to each well for dissolution. The absorbance was measured at a detection wavelength of 570 nm and a reference wavelength of 630 nm using a microplate reader, and the PIR was calculated by the formula as follows:
PIR (%)=1−administration group/negative group
The experiment was repeated independently three times. The results were expressed as mean±SD, and statistical T test was conducted. *P<0.05 indicates significant difference, and **P<0.01 indicates extremely significant difference.

[7] = tested on: HUVECs; test: Transwell migration inhibition on HUVECs; format: cell-based, human; conditions: dose 0.2 μM

Molecule	PIR (%) [1] [%]	PIR (%) [2] [%]	PIR (%) [3] [%]	PIR (%) [4] [%]	PIR (%) [5] [%]	Inhibition rate (%) [6] [%**]	A570 nm-A630 nm ([6]; mean±SD)	Inhibition rate (%) ([7]; HUVEC migration vs blank control)	Cell migration number (Mean ± SD) ([7]; HUVECs, transwell, 24 h)	Cell migration number (Mean ± SD) ([7]; 24 h)	Inhibition rate (migration) ([7]; 24 h) [%]
CC(=O)O[C@@]12CO[C@@H]1C[C@H](O)[C@@]1(C)C(=O)[C@H](O)C3=C(C)[C@@H](OC(=O)[C@H](O)[C@@H](NC(=O)OC(C)(C)C)c4ccccc4)C[C@@](O)([C@@H](OC(=O)c4ccccc4)[C@H]21)C3(C)C [Docetaxel]	53.43	45.92	73.75	55.66	70.69	–	–	–	–	–	–
Avastin: positive control [reference compound]	–	–	–	–	–	67.30	0.4325 ± 0.01108	60.92	418.92 ± 61.42	418.92 ± 61.42	60.92
